According to patent US4970077A, “6-substituted-4-hydroxytetrahydropyran-2-one derivatives and pharmaceutical compositions containing them” (Boehringer Mannheim GmbH, priority 1988, dated 1990):

Key:
HMG-CoA reductase [1] = target: T1, HMG-CoA reductase (Rattus norvegicus, UniProt P51639); assay: Inhibition of HMG-CoA reductase in a microsome fraction from rat liver; type: biochemical; conditions: rat liver microsomes; for HMG-CoA-reductase Inhibition in %: concentration not given, method: 10^-4 M or 10^-5 M
T1 construct: microsomes from rat livers; from tissue; host or cells: liver of cholestyramine-treated rats (reversed day/night rhythm), microsome fraction
T1 sequence (P51639 1-887): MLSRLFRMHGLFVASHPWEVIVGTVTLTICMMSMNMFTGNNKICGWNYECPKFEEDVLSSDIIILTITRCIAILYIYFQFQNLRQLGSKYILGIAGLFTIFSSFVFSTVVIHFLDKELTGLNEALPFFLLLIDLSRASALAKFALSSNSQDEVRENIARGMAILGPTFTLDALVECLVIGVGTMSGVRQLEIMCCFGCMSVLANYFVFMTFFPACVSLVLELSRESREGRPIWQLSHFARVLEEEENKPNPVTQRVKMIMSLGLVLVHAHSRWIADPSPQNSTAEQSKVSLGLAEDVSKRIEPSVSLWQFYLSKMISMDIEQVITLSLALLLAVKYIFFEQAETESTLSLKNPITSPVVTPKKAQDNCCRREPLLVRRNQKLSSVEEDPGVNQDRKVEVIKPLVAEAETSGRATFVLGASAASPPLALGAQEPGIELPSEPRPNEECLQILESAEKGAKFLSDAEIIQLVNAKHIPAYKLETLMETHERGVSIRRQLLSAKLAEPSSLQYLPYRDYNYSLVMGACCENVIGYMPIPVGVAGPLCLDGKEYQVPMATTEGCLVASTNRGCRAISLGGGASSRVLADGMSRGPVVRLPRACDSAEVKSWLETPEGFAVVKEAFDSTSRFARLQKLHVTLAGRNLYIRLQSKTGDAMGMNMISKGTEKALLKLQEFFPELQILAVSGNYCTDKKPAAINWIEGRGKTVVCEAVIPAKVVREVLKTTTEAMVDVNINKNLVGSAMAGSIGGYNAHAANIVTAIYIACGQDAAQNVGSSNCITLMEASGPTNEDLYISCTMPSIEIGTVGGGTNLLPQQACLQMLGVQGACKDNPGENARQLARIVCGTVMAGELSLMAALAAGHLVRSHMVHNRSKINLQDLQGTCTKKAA
Text: Inhibition of HMG-CoA reductase in a microsome fraction from rat liver
For the determination of the HMG-CoA reductase activity, microsomes from rat livers, which had been treated for 7 days in the case of reversed day/night rhythm with cholestyramine, were separated by centrifuging. The action of the test compounds at a concentration of 10^-4 M or 10^-5 M on the formation of mevalonate from (S,R) ^14 C--HMG--CoA was investigated. The experimental conditions are described in detail by J. Huber. S. Latzien and B. Hamprecht, Hoppe-Seylers Z. Physiol. Chem., 354, 1654/1973.

HMG-CoA reductase [2] = conditions: literature: Endo 1976; Alberts 1980; cited from earlier work

Row | Compound | HMG-CoA-reductase Inhibition in % (HMG-CoA reductase [1]) [%] | competitive inhibition of HMG-CoA reductase (in words) (HMG-CoA reductase [2]) | other results
1 | O=C1C[C@H](O)C[C@@H](/C=C/c2c(Cl)cc(Cl)cc2C2CCCCCC2)O1 (relative stereo) [2 (a)] | 95 |  | 
2 | O=C1C[C@H](O)C[C@@H](/C=C/c2c(Cl)cccc2C2CCCCCC2)O1 (relative stereo) [2 (b)] | 93 |  | 
3 | O=C1C[C@H](O)C[C@@H](/C=C/c2c(Cl)cc(Cl)cc2C2CCCCC2)O1 (relative stereo) [2 (c)] | 90 |  | 
4 | O=C1C[C@H](O)C[C@@H](/C=C/c2ccccc2C2=CCCCC2)O1 (relative stereo) [2 (i)] |  |  | inhibition at 100 µM (HMG-CoA reductase [1]; 10^-4 M): 63%
5 | CC[C@H](C)C(=O)O[C@H]1CCC=C2C=C[C@H](C)[C@H](CC[C@@H]3C[C@@H](O)CC(=O)O3)[C@H]21 [compactin A] |  | competitively to inhibit HMG-CoA reductase | 
6 | CC[C@H](C)C(=O)O[C@H]1C[C@@H](C)C=C2C=C[C@H](C)[C@H](CC[C@@H]3C[C@@H](O)CC(=O)O3)[C@H]21 [mevinolin] |  | competitively to inhibit HMG-CoA reductase | 
